Measured values taken from patent publication US20260250247A1, “NOVEL INDOLINE DERIVATIVE AND USE THEREOF” (CK REGEON INC., priority 2023, published 2026).
Counter-ions that a name gives are not always drawn.

Assays:
[1] = target: CXXC5-Dvl interaction (PDZ domain of Dvl (dishevelled) protein / PTD-DBM-FITC); experiment: CXXC5-Dvl binding inhibition, competition of PTD-DBM-FITC on plate-bound Dvl PDZ domain; details: purified Dvl PDZ domain 5 μg/mL, 10 μM PTD-DBM-FITC, compounds 0.001-100 μM, FITC fluorescence
Procedure: 5 μg/mL of the purified PDZ domain ofDvl (dishevelled) protein was attached to the bottom of a 96-well black immunoplate and left in a chamber at 4° C. for one day. The next day, each well was washed with PBS and 10 μM PTD-DBM-FITC was added. After incubation at room temperature for 3 hours, each well was washed with PBS. Each well was treated with the indoline derivatives at various concentrations (100, 10, 1, 0.1, 0.01, and 0.001 μM) in 100 μL of PBS. After washing with a buffer, fluorescence was measured by FITC using a microplate reader. A competition binding curve showing the degree of CXXC5-Dvl PPI inhibition was constructed using the GraphPad Prism software, and the IC50 value was calculated. […] CK090), and the intermediate compound 5-cyanoindirubin as controls.

3T3-L1 pre-adipocytes = experiment: Inhibition of adipocyte differentiation and lipid accumulation, Oil Red O; format: cell-based; details: 3T3-L1, compound 1 μM, MDI-induced differentiation for 8 days, Oil Red O eluted, absorbance 544 nm; for activity at 1 µM: Mus musculus, 192 h, read-out: lipid accumulation rate
Procedure: 3T3-L1 cells were seeded in a 6-well plate at a density of […] cells per well. The cells were grown to 100% confluency in Dulbecco's modified Eagle's medium (DMEM) supplemented with 10% bovine calf serum (BCS; GIBCO). Two days after reaching 100% confluency, differentiation was induced with or without treatment with the indoline compound at a concentration of 1 μM in DMEM containing 10% fetal bovine serum (FBS; GIBCO) and MDI (520 μM methylisobutylxanthine (IBMX; Sigma-Aldrich), 1 μM dexamethasone (Sigma-Aldrich), and 5 μM insulin (GIBCO)). On day 3, the medium was replaced with DMEM containing 10% FBS and 5 μM insulin with or without the indoline compound, and then with a fresh identical medium every 2 days. After differentiation for 8 days, the culture medium was removed, and the cells were washed with PBS and then fixed with 10% formaldehyde for 1 hour. After removing the 10% formaldehyde, the cells were washed thoroughly with distilled water. After that, 60% isopropanol was added and immediately then removed. After washing with distilled water, lipid droplets were stained with an Oil Red O dye solution for 20 minutes and then washed with distilled water. The cells were counterstained with Mayer's hematoxylin. Oil Red O images were visualized using a bright-field microscope (Nikon TE-2000U). To quantify the accumulated lipids, Oil Red O was eluted by adding isopropanol, and absorbance was measured spectrophotometrically at 544 nm using a multi-plate reader.
As A3051 (KY19382) and A3334, self-developed and synthesized materials were used. As BIO, or GSK 3 Inhibitor IX, also known as 6-bromoindirubin-3′-oxime, HY-10580 was purchased commercially.
In FIG. 2, the undifferentiated group (Un Diff) refers to undifferentiated adipocytes, or preadipocytes that had not been induced to differentiate, and the differentiated group (Diff) refers to fully differentiated adipocytes.

**Q.** For N#Cc1ccc2c(c1)/C(=C1/Nc3ccccc3/C1=N\OCCN1CCCCC1)C(=O)N2 [Example 5, (2Z,3E)-2′-oxo-3-((2-(piperidin-1-yl)ethoxy)imino)-[2,3′-biindolinylidene]-5′-carbonitrile], which IC50 [1] is on record?
**A.** Its IC50 is 9.29 nM.

**Q.** What about the activity at 1 µM (3T3-L1 pre-adipocytes) of the same compound?
**A.** The activity at 1 µM was 26.2%.

**Q.** With COc1ccc2c(c1)/C(=C1/Nc3ccccc3/C1=N\O)C(=O)N2 [Example A3334, reference compound] as the compound, how does the lipid accumulation rate (3T3-L1 pre-adipocytes) read?
**A.** Its lipid accumulation rate is 78.7%.

**Q.** For N#Cc1ccc2c(c1)/C(=C1/Nc3ccccc3/C1=N\OCCCN1CCCCC1)C(=O)N2 [Example 7, (2Z,3E)-2′-oxo-3-((3-(piperidin-1-yl)propoxy)imino)-[2,3′-biindolinylidene]-5′-carbonitrile], which IC50 [1] is on record?
**A.** Its IC50 is 10.8 nM.

**Q.** What about the activity at 1 µM (3T3-L1 pre-adipocytes) of the same compound?
**A.** The activity at 1 µM was 33.6%.

**Q.** With N#Cc1ccc2c(c1)/C(=C1/Nc3ccccc3/C1=N\OCCCN1CCOCC1)C(=O)N2 [Example 10, (2Z,3E)-3-((3-morpholinopropoxy)imino)-2′-oxo-[2,3′-biindolinylidene]-5′-carbonitrile] as the compound, how does the IC50 [1] read?
**A.** The IC50 was 12.7 nM.

**Q.** What about the activity at 1 µM (3T3-L1 pre-adipocytes) of the same compound?
**A.** Its activity at 1 µM is 24.3%.

**Q.** N#Cc1ccc2c(c1)/C(=C1/Nc3ccccc3/C1=N\OCCCN1CCSCC1)C(=O)N2 [Example 12, (2Z,3E)-2′-oxo-3-((3-thiomorpholinopropoxy)imino)-[2,3′-biindolinylidene]-5′-carbonitrile] was tested. Which IC50 [1] did it give?
**A.** The IC50 was 6.26 nM.

**Q.** And the activity at 1 µM (3T3-L1 pre-adipocytes)?
**A.** Its activity at 1 µM is 27.4%.

**Q.** Cc1cc2c(cc1Cl)NC(=O)/C2=C1\Nc2ccccc2\C1=N/OCCN1CCN(C)CC1 [CK090, (2Z,3E)-6′-chloro-5′-methyl-3-((2-(4-methylpiperazin-1-yl)ethoxy)imino)-[2,3′-biindolinylidene]-2′-one, reference compound] was tested. Which IC50 [1] did it give?
**A.** The IC50 was 4220 nM.

**Q.** For N#Cc1ccc2c(c1)/C(=C1/Nc3ccccc3/C1=N\OCCN1CCS(=O)(=O)CC1)C(=O)N2 [Example 13, (2Z,3E)-3-((2-(1,1-dioxidothiomorpholino)ethoxy)imino)-2′-oxo-[2,3′-biindolinidene]-5′-carbonitrile], which IC50 [1] is on record?
**A.** Its IC50 is 2.65 nM.

**Q.** What about the activity at 1 µM (3T3-L1 pre-adipocytes) of the same compound?
**A.** Its activity at 1 µM is 26.6%.

**Q.** With N#Cc1ccc2c(c1)/C(=C1/Nc3ccccc3/C1=N\OCCN1CCCC1C(=O)O)C(=O)N2 (stereo not shown) [Example 15, (2-((((2Z,3E)-5′-cyano-2′-oxo-[2,3′-biindolinidene]-3-ylidene)amino)oxy)ethyl)proline] as the compound, how does the IC50 [1] read?
**A.** Its IC50 is 45.2 nM.

**Q.** What about the activity at 1 µM (3T3-L1 pre-adipocytes) of the same compound?
**A.** The activity at 1 µM was 24.8%.

**Q.** With CN1CCN(CCCO/N=C2/C(=C3/C(=O)Nc4ccc(C#N)cc43)Nc3ccccc32)CC1 [Example 11, (2Z,3E)-3-((3-(4-methylpiperazin-1-yl)propoxy)imino)-2′-oxo-[2,3′-biindolinylidene]-5′-carbonitrile] as the compound, how does the IC50 [1] read?
**A.** The IC50 was 12.3 nM.

**Q.** And the activity at 1 µM (3T3-L1 pre-adipocytes)?
**A.** Its activity at 1 µM is 24.1%.

**Q.** With N#Cc1ccc2c(c1)/C(=C1/Nc3ccccc3/C1=N\OCCN1CC[S+]([O-])CC1)C(=O)N2 [Example 14, (2Z,3E)-3-((2-(1-oxidothiomorpholino)ethoxy)imino)-2′-oxo-[2,3′-biindolinidene]-5′-carbonitrile hydrochloride] as the compound, how does the IC50 [1] read?
**A.** The IC50 was 26.1 nM.

**Q.** And the activity at 1 µM (3T3-L1 pre-adipocytes)?
**A.** Its activity at 1 µM is 26.8%.

**Q.** N#Cc1ccc2c(c1)/C(=C1/Nc3ccccc3/C1=N\OCCCN1CCCC1)C(=O)N2 [Example 8, (2Z,3E)-2′-oxo-3-((3-(pyrrolidin-1-yl)propoxy)imino)-[2,3′-biindolinylidene]-5′-carbonitrile] was tested. Which IC50 [1] did it give?
**A.** The IC50 was 17.2 nM.

**Q.** And the activity at 1 µM (3T3-L1 pre-adipocytes)?
**A.** The activity at 1 µM was 25.1%.

**Q.** How did the IC50 [1] turn out when O=C1Nc2ccccc2/C1=C1/Nc2ccccc2C1=O [Indirubin, (Z)-[2,3′-biindolinylidene]-2′,3-dione, reference compound] was run?
**A.** The IC50 was 53900 nM.

**Q.** And the activity at 1 µM (3T3-L1 pre-adipocytes)?
**A.** Its activity at 1 µM is 96.4%.

**Q.** Which results are given for N#Cc1ccc2c(c1)/C(=C1/Nc3ccccc3/C1=N\OCCCN1CCNCC1)C(=O)N2 [Example 9, (2Z,3E)-2′-oxo-3-((3-(piperazin-1-yl)propoxy)imino)-[2,3′-biindolinylidene]-5′-carbonitrile]?
**A.** IC50 [1]: 20.4 nM; activity at 1 µM (3T3-L1 pre-adipocytes): 25.4%

**Q.** O=C1Nc2cc(Br)ccc2/C1=C1/Nc2ccccc2/C1=N\O [BIO, 6-bromoindirubin-3′-oxime, reference compound] was tested. Which lipid accumulation rate (3T3-L1 pre-adipocytes) did it give?
**A.** Its lipid accumulation rate is 79.4%.
